Experimental data: patent US20250051375A1, “ANTI-HIV COMPOUNDS” (Gilead Sciences, Inc., priority 2023, published 2025)
In brackets after ≈: the same amount, converted by molar mass.

Key:
HIV-1 IIIB strain = experiment: MT-4 HIV Wild Type Virus Infection Assay (IIIB Virus); assay type: cell-based; conditions: Human immunodeficiency virus 1, IIIB, MT4, 120 h, MT-4 cells acutely infected with HIV-1 IIIB, 5 day incubation, Cell-titer glo
Outline: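 MT-4 cells at 2×10^6 cells/ml in RPMI/10% FBS were acutely infected with HIV-1 IIIB for 1 h at 37° C, diluted 25× and added to serially diluted compounds. After 5 days at 37° C, viability read by CellTiter-Glo luminescence; EC50 from dose-response curves.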

[1] = biological target: bovine intestinal alkaline phosphatase (Bos taurus (Bovine), UniProt P19111); experiment: BiALP: conversion by bovine intestinal alkaline phosphatase; assay type: in vitro ADME; conditions: 2 μM substrate, 100 ng/mL iALP, Tris pH 7.8, 37° C., 60 minutes; for [Intermediate A] or [Amprenavir]: parent formed
bovine intestinal alkaline phosphatase, sequence (P19111 20-506): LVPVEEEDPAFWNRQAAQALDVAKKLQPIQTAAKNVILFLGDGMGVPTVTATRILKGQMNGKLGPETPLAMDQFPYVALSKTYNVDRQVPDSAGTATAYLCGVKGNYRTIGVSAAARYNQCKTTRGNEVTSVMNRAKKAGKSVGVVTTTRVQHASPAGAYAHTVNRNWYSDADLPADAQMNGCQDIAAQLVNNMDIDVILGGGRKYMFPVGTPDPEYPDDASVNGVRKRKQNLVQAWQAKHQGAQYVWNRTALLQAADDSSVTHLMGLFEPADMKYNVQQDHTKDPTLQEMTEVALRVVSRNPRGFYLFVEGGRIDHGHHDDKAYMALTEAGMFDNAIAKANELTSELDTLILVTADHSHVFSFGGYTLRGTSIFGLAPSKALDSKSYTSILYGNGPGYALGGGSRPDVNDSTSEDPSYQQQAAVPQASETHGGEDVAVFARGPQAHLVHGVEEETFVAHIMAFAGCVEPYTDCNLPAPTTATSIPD
Outline: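 LC-MS (positive mode) quantified analyte/internal-standard peak area ratios, referenced to 2 μM parent product. This followed a 60 min, 37° C reaction of 2 μM substrate in Tris buffer pH 7.8 (1 mM MgCl2, 1 mM ZnCl2) containing 100 ng/mL iALP or buffer alone, run in triplicate.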

[2] = Intestinal S9 Assay (human GI S9); assay type: in vitro ADME; conditions: 1.0 mg/mL S9 protein; for Human GI S9 [Intermediate A] / Human GI S9 [Intermediate A] %: 2 μM, TRIS pH 7.4; for half-life at 2 μM: human, TRIS pH 7.4, read-out: Human GI S9 T½
Protocol: (§1) Reagents. Stock solutions of test compounds in dimethyl sulfoxide (DMSO) having a final concentration of 10 mM were prepared and used in all experiments. Sekisui XenoTech (Kansas City, KS) provided pooled intestinal S9 fractions. All other chemicals were purchased from Sigma-Aldrich (St. Louis, MO) or VWR (West Chester, PA). Internal Standard/Quench (IS/Q) used to stop reactions was 100 nM labetalol in (by volume) formic acid (1%) and acetonitrile (99%).
(§2) Intestinal S9 Assay: For each test compound, an aliquot of the test compound was added to S9 stock diluted with TRIS buffer (100 mM TRIS, 1 mM ZnCl2, 1 mM MgCl2), pH 7.4, to obtain an incubation protein concentration of 1.0 mg/mL. The incubation was initiated by the addition of the substrate to the S9 reaction mixture to a final concentration of 2 μM. At 0, 10, 20, 30, 60 and 120 min, 25 μL aliquots of the reaction mixture were transferred to plates containing 225 μl of IS/Q solution. After quenching, the plates were centrifuged at 3000×g for 30 minutes. 150 μL aliquots of each supernatant were transferred to new plates and 150 μL water was added. Aliquots (10 μL) of the prepared samples were analyzed on a Thermo Q-Exactive mass spectrometer as described below.
(§3) Liquid Chromatography-Mass Spectrometry: Quantification of test compounds and control substrate was performed by analyte/internal standard peak area ratio (PAR) values measured on a Thermo Q-Exactive mass spectrometer coupled to a Dionex UltiMate 3000 HPLC with a Leap Technologies HTC PAL autosampler. The column used for analysis was a Thermo Scientific Hypersil GOLD (1.9 μm particle size, 50×2.1 mm). Mobile phase A consisted of 0.1% (v/v) formic acid in water. Mobile phase B consisted of 0.1% (v/v) formic acid in acetonitrile. Elution of analytes was achieved by a series of linear gradients varying the proportions of A and B. The mass spectrometer was calibrated on a weekly basis and mass tolerance of 5 ppm was used.
(§4) Data Analysis. Metabolic stabilities were determined by measuring the rates of disappearance of test compound and positive control substrate. Data (% of substrate remaining) were plotted on a semi-log scale and fitted using an exponential decline model:
(§5) where • Ct% of substrate remaining at time=t • C0% of substrate remaining at time=0 • t time • T½ half-life • The Half-life (T½) is determined by the following equation:
(§6) [formula] • Assuming a first-order reaction, the slope (k) is extrapolated from the aforementioned plotted data.

[3] = Intestinal S9 Assay (dog GI S9); assay type: in vitro ADME; conditions: 1.0 mg/mL S9 protein; for Dog GI S9 [Intermediate A] / Dog GI S9 [Intermediate A] %: 2 μM, TRIS pH 7.4; for half-life at 2 μM: dog, TRIS pH 7.4, read-out: Dog GI S9 T½
Protocol: as §1, §2, §3, §4, §5, §6

Solubility in FaSSIF = conditions: 23 °C, pH 6.5, fassif, thermodynamic from solid
Outline: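 Concentration measured by HPLC-UV after solid compound was dosed at 5 mg/mL into pH 6.5 fasted-state simulated intestinal fluid containing taurocholate and lecithin (4:1 molar) and vortexed.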

PBS Stability Assay = assay type: physicochemical; conditions: buffer, pH 7.4, 2 μM, phosphate buffered saline pH 7.4; read-out: PBS T½
Outline: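 Half-life derives from first-order exponential decline of % compound remaining, quantified by LC-MS analyte/internal-standard peak-area ratio. Compound (2 μM final) sat in pH 7.4 phosphate-buffered saline, with aliquots quenched into acidified acetonitrile containing labetalol from 0 to 120 min.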

SMILES	EC50 (HIV-1 IIIB strain)	[Compound] [1]	biALP Intermediate A or [Amprenavir] (% of total) [1]	[Intermediate A] or [Amprenavir] [1]	Human GI S9 [Intermediate A] [2]	Human GI S9 [Intermediate A] % [2]	half-life at 2 μM [2]	Dog GI S9 [Intermediate A] [3]	Dog GI S9 [Intermediate A] % [3]	half-life at 2 μM [3]	solubility at 2 h (Solubility in FaSSIF)	half-life at 2 μM (PBS Stability Assay)
COC(=O)N[C@H](C(=O)N[C@@H](Cc1ccc(C#Cc2cnc(N3CC4CCC(C3)N4C3COC3)nc2)cc1)[C@H](CN(Cc1c(F)cc(-c2ccn(C(F)F)n2)cc1F)NC(=O)[C@@H](NC(=O)OC)C(C)(C)C(F)(F)F)OC(=O)CC(C)(C)c1c(CC(=O)Nc2cc(C(=O)O)cc(C(=O)O)c2)cccc1OP(=O)(O)O)C(C)(C)C(F)(F)F [Example 19]	38.9 nM	1405.7 nM	18.4 % of total	317.9 nM	323.6 nM	22.1%	3.83 h	1045.1 nM	94.7%	0.3 h	3650 µg/mL (≈ 2230 µM)	
COC(=O)N[C@H](C(=O)N[C@@H](Cc1ccc(C#Cc2cnc(N3CC4CCC(C3)N4C3COC3)nc2)cc1)[C@H](CN(Cc1c(F)cc(-c2ccn(C(F)F)n2)cc1F)NC(=O)[C@@H](NC(=O)OC)C(C)(C)C(F)(F)F)OC(=O)CC(C)(C)c1c(CC(=O)NC2(C(=O)O)CCOCC2)cc(C)cc1OP(=O)(O)O)C(C)(C)C(F)(F)F [Example 31]	276 nM	2125.6 nM					8.24 h			3.71 h	3510 µg/mL (≈ 2180 µM)	
COC(=O)N[C@H](C(=O)N[C@@H](Cc1ccc(C#Cc2cnc(N3CC4CCC(C3)N4C3COC3)nc2)cc1)[C@H](CN(Cc1c(F)cc(-c2ccn(C(F)F)n2)cc1F)NC(=O)[C@@H](NC(=O)OC)C(C)(C)C(F)(F)F)OC(=O)CC(C)(C)c1c(CC(=O)N[C@@H](CCS(=O)(=O)O)C(=O)O)cccc1OP(=O)(O)O)C(C)(C)C(F)(F)F [Example 40]	40.5 nM	1458.8 nM					4.76 h			0.537 h	4910 µg/mL (≈ 3000 µM)	
COC(=O)N[C@H](C(=O)N[C@@H](Cc1ccc(C#Cc2cnc(N3CC4CCC(C3)N4C3COC3)nc2)cc1)[C@H](CN(Cc1c(F)cc(-c2ccn(C(F)F)n2)cc1F)NC(=O)[C@@H](NC(=O)OC)C(C)(C)C(F)(F)F)OC(=O)CC(C)(C)c1c(CC(=O)N2CCC[C@H]2C(=O)O)cccc1OP(=O)(O)O)C(C)(C)C(F)(F)F [Example 46]	190 nM	1864.7 nM					7.41 h			5.08 h	2870 µg/mL (≈ 1830 µM)	
COC(=O)N[C@H](C(=O)N[C@@H](Cc1ccc(C#Cc2cnc(N3CC4CCC(C3)N4C3COC3)nc2)cc1)[C@H](CN(Cc1c(F)cc(-c2ccn(C(F)F)n2)cc1F)NC(=O)[C@@H](NC(=O)OC)C(C)(C)C(F)(F)F)OC(=O)CC(C)(C)c1c(CC(=O)N2C[C@H]3[C@@H]([C@H]2C(=O)O)C3(C)C)cc(C)cc1OP(=O)(O)O)C(C)(C)C(F)(F)F [Example 47]	593 nM	1950.3 nM					6.39 h			7.34 h	3620 µg/mL (≈ 2230 µM)	
COC(=O)N[C@H](C(=O)N[C@@H](Cc1ccc(C#Cc2cnc(N3CC4CCC(C3)N4C3COC3)nc2)cc1)[C@H](CN(Cc1c(F)cc(-c2ccn(C(F)F)n2)cc1F)NC(=O)[C@@H](NC(=O)OC)C(C)(C)C(F)(F)F)OC(=O)CC(C)(C)c1c(CC(=O)N2[C@@H](C)CC[C@H]2C(=O)O)cc(C)cc1OP(=O)(O)O)C(C)(C)C(F)(F)F [Example 54]	94 nM	1661.6 nM					12.9 h			9.44 h	3080 µg/mL (≈ 1930 µM)	
COC(=O)N[C@H](C(=O)N[C@@H](Cc1ccc(C#Cc2cnc(N3CC4CCC(C3)N4C3COC3)nc2)cc1)[C@H](CN(Cc1c(F)cc(-c2ccn(C(F)F)n2)cc1F)NC(=O)[C@@H](NC(=O)OC)C(C)(C)C(F)(F)F)OC(=O)CC(C)(C)c1c(CC(=O)N2[C@H](C(=O)O)C[C@@H]3CCCC[C@@H]32)cc(C)cc1OP(=O)(O)O)C(C)(C)C(F)(F)F [Example 55]	3480 nM	1659.2 nM					12.7 h			12 h	< 1000 µg/mL	
COC(=O)N[C@H](C(=O)N[C@@H](Cc1ccc(C#Cc2cnc(N3CC4CCC(C3)N4C3COC3)nc2)cc1)[C@H](CN(Cc1c(F)cc(-c2ccn(C(F)F)n2)cc1F)NC(=O)[C@@H](NC(=O)OC)C(C)(C)C(F)(F)F)OC(=O)CC(C)(C)c1c(CC(=O)NCc2ccc(S(N)(=O)=O)cc2)cc(C)cc1OP(=O)(O)O)C(C)(C)C(F)(F)F [Example 62]	280 nM	2213.4 nM	0 % of total	0 nM	22.2 nM	1.8%		38.3 nM	3.1%	13.2 h		
COC(=O)N[C@H](C(=O)N[C@@H](Cc1ccc(C#Cc2cnc(N3CC4CCC(C3)N4C3COC3)nc2)cc1)[C@H](CN(Cc1c(F)cc(-c2ccn(C(F)F)n2)cc1F)NC(=O)[C@@H](NC(=O)OC)C(C)(C)C(F)(F)F)OC(=O)CC(C)(C)c1c(CC(=O)N[C@H]2C[C@H](C(=O)O)C2)cc(C)cc1OP(=O)(O)O)C(C)(C)C(F)(F)F [Example 101]	60.6 nM	1688.4 nM									1520 µg/mL (≈ 964 µM)	8.09 h
COC(=O)N[C@H](C(=O)N[C@@H](Cc1ccc(C#Cc2cnc(N3CC4CCC(C3)N4C3COC3)nc2)cc1)[C@H](CN(Cc1c(F)cc(-c2ccn(C(F)F)n2)cc1F)NC(=O)[C@@H](NC(=O)OC)C(C)(C)C(F)(F)F)OC(=O)CC(C)(C)c1c(CC(=O)N[C@H]2C[C@@H](C(=O)O)C2)cc(C)cc1OP(=O)(O)O)C(C)(C)C(F)(F)F [Example 102]	54.1 nM	1966.3 nM									2860 µg/mL (≈ 1810 µM)	7.78 h
COC(=O)N[C@H](C(=O)N[C@@H](Cc1ccc(C#Cc2cnc(N3CC4CCC(C3)N4C3COC3)nc2)cc1)[C@H](CN(Cc1c(F)cc(-c2ccn(C(F)F)n2)cc1F)NC(=O)[C@@H](NC(=O)OC)C(C)(C)C(F)(F)F)OC(=O)CC(C)(C)c1c(CC(=O)NCC(C)(C)C(=O)O)cc(C)cc1OP(=O)(O)O)C(C)(C)C(F)(F)F [Example 103]	132 nM	1589 nM									80 µg/mL (≈ 50.5 µM)	5.52 h
COC(=O)N[C@H](C(=O)N[C@@H](Cc1ccc(C#Cc2cnc(N3CC4CCC(C3)N4C3COC3)nc2)cc1)[C@H](CN(Cc1c(F)cc(-c2ccn(C(F)F)n2)cc1F)NC(=O)[C@@H](NC(=O)OC)C(C)(C)C(F)(F)F)OC(=O)CC(C)(C)c1c(CC(=O)N(CC(=O)O)CC(=O)O)cc(C)cc1OP(=O)(O)O)C(C)(C)C(F)(F)F [Example 106]	761 nM	1588.2 nM									3920 µg/mL (≈ 2450 µM)	4.52 h
